The first assay relates to parasites (ring stage, in human red blood cell culture). The experiment in a line: Parasite LDH growth assay (antiparasite potency, Parasite Assay). Format: cell-based, Plasmodium falciparum. Particulars: 0.7% rings, 2% haematocrit, 72 hours at 37° C., LDH readout of parasite growth. Summed up: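 Ring-stage parasites at 0.7% parasitemia and 2% haematocrit, in RPMI-Hepes/bicarbonate with 5% heat-inactivated human serum and 0.5% albumax, were added to compound-containing medium. Cultures grew 72 h at 37 °C in gassed humidified boxes. Plates were then frozen overnight at −80 °C, thawed 4 h, and growth was measured by LDH assay.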
As a reminder, the EC50 is the concentration needed to bring the measured effect to its halfway point. Regarding `CC1(C)CC(=O)N([C@@H]2CCOc3ccc(C(=O)N[C@H]4CC(C)(C)Oc5ccccc54)cc32)C(=N)N1` [Example 12A, (R)-N-((S)-2,2-dimethylchroman-4-yl)-4-(2-imino-4,4-dimethyl-6-oxotetrahydropyrimidin-1(2H)-yl)chromane-6-carboxamide], a half-maximal response (EC50) required 1.1 nM.

The assay is the same for the next values; noted with them: Plasmodium falciparum, Erythrocyte, 72 h, 0.7% rings, 2% haematocrit, 72 hours at 37° C., LDH readout of parasite growth.
The compound `CC(C)[C@]1(C)CC(=O)N([C@@H]2CCOc3ccc(C(=O)N[C@H]4CC(C)(C)Oc5ccccc54)cc32)C(=N)N1` [Example 10A, (R)-N-((S)-2,2-dimethylchroman-4-yl)-4-((S)-2-imino-4-isopropyl-4-methyl-6-oxotetrahydropyrimidin-1(2H)-yl)chromane-6-carboxamide] registered an EC50 of 0.5 nM.
The same measure, in the same setting: the result for `CC(C)[C@]1(C)CC(=O)N([C@@H]2CCOc3ccc(C(=O)N[C@@H]4c5ccccc5OC(C)(C)C4O)cc32)C(=N)N1` (stereo partly drawn) [Example 11B, (4R)-N-(3-hydroxy-2,2-dimethylchroman-4-yl)-4-((S)-2-imino-4-isopropyl-4-methyl-6-oxotetrahydropyrimidin-1(2H)-yl)chromane-6-carboxamide] reads 84 nM.
For `CCC1(CC)CC(=O)N([C@@H]2CCOc3ccc(C(=O)N[C@H]4CC(C)(C)Oc5ccc(Br)cc54)cc32)C(=N)N1` [Example 14A, (R)-N-((S)-6-bromo-2,2-dimethylchroman-4-yl)-4-(4,4-diethyl-2-imino-6-oxotetrahydropyrimidin-1(2H)-yl)chromane-6-carboxamide], the midpoint of the response, the EC50, lay at 1 nM.
Same read-out and setting: the result for `CCC1(CC)CC(=O)N([C@@H]2CCOc3ccc(C(=O)N[C@@H]4c5cc(Br)ccc5OC(C)(C)[C@H]4O)cc32)C(=N)N1` [Example 15A, (R)-N-((3S,4R)-6-bromo-3-hydroxy-2,2-dimethylchroman-4-yl)-4-(4,4-diethyl-2-imino-6-oxotetrahydropyrimidin-1(2H)-yl)chromane-6-carboxamide] reads 0.3 nM; that for `CCC1(CC)CC(=O)N([C@@H]2CC(COC)Oc3ccc(C(=O)N[C@@H]4c5ccccc5OC(C)(C)[C@H]4O)cc32)C(=N)N1` (stereo partly drawn) [Example 18A, (4R)-4-(4,4-diethyl-2-imino-6-oxotetrahydropyrimidin-1(2H)-yl)-N-((3S,4R)-3-hydroxy-2,2-dimethylchroman-4-yl)-2-(methoxymethyl)chromane-6-carboxamide], 0.8 nM.
Still for that read-out and setting: for `CCC1(CC)CC(=O)N([C@@H]2CCOc3ccc(C(=O)N[C@@H]4c5cc(Cl)ccc5OC(C)(C)[C@H]4O)cc32)C(=N)N1` [Example 19A, (R)-N-((3S,4R)-6-chloro-3-hydroxy-2,2-dimethylchroman-4-yl)-4-(4,4-diethyl-2-imino-6-oxotetrahydropyrimidin-1(2H)-yl)chromane-6-carboxamide] the value was 0.3 nM.
Turning to `CCC1(CC)CC(=O)N([C@@H]2CCOc3ccc(C(=O)N[C@@H]4c5cc(C#N)ccc5OC(C)(C)[C@H]4O)cc32)C(=N)N1` [Example 20A, (R)-N-((3S,4R)-6-cyano-3-hydroxy-2,2-dimethylchroman-4-yl)-4-(4,4-diethyl-2-imino-6-oxotetrahydropyrimidin-1(2H)-yl)chromane-6-carboxamide], the EC50 was 0.8 nM. This EC50 is about 2.7-fold higher than that of the compound before.
Still for that read-out and setting: the result for `CCC1(CC)CC(=O)N([C@@H]2CCOc3ccc(C(=O)N[C@H]4CC(C)(C)Oc5ccc(C#N)cc54)cc32)C(=N)N1` [Example 21A, (R)-N-((S)-6-cyano-2,2-dimethylchroman-4-yl)-4-(4,4-diethyl-2-imino-6-oxotetrahydropyrimidin-1(2H)-yl)chromane-6-carboxamide] reads 0.8 nM.
The same measure, in the same setting: the result for `CCC1(CC)CC(=O)N([C@@H]2CC3(COC3)Oc3ccc(C(=O)N[C@H]4CC(C)(C)Oc5ccccc54)cc32)C(=N)N1` [Example 22A, (R)-4-(4,4-diethyl-2-imino-6-oxotetrahydropyrimidin-1(2H)-yl)-N-((S)-2,2-dimethylchroman-4-yl)spiro[chromane-2,3′-oxetane]-6-carboxamide] reads 0.7 nM.
For `CCC1(CC)CC(=O)N([C@@H]2CC3(COC3)Oc3ccc(C(=O)N[C@@H]4c5ccccc5C[C@H]4O)cc32)C(=N)N1` [Example 23A, (R)-4-(4,4-diethyl-2-imino-6-oxotetrahydropyrimidin-1(2H)-yl)-N-((1R,2R)-2-hydroxy-2,3-dihydro-1H-inden-1-yl)spiro[chromane-2,3′-oxetane]-6-carboxamide], the midpoint of the response, the EC50, lay at 5 nM. Compared with the last compound, the EC50 is about 7.1-fold higher.
On the same count and under the same terms, the result for `CCC1(CC)CC(=O)N([C@@H]2CC3(COC3)Oc3ccc(C(=O)N[C@@H]4c5ccccc5OC(C)(C)[C@H]4O)cc32)C(=N)N1` [Example 24A, (R)-4-(4,4-diethyl-2-imino-6-oxotetrahydropyrimidin-1(2H)-yl)-N-((3S,4R)-3-hydroxy-2,2-dimethylchroman-4-yl)spiro[chromane-2,3′-oxetane]-6-carboxamide] reads 9.3 nM; that for `CCC1(CC)CC(=O)N([C@@H]2CCOc3ccc(C(=O)N[C@@H]4c5cc(F)ccc5OC(C)(C)[C@H]4O)cc32)C(=N)N1` [Example 25A, (R)-4-(4,4-diethyl-2-imino-6-oxotetrahydropyrimidin-1(2H)-yl)-N-((3S,4R)-6-fluoro-3-hydroxy-2,2-dimethylchroman-4-yl)chromane-6-carboxamide], 0.5 nM.
Still for that read-out and setting: for `CCC1(CC)CC(=O)N([C@@H]2CCOc3ccc(C(=O)N[C@H]4c5cc(F)ccc5OC(C)(C)[C@@H]4O)cc32)C(=N)N1` [Example 25B, (R)-4-(4,4-diethyl-2-imino-6-oxotetrahydropyrimidin-1(2H)-yl)-N-((3R,4S)-6-fluoro-3-hydroxy-2,2-dimethylchroman-4-yl)chromane-6-carboxamide] the value was 59.8 nM; for `CCC1(CC)CC(=O)N([C@@H]2CCOc3c(Cl)cc(C(=O)N[C@H]4CC(C)(C)Oc5ccccc54)cc32)C(=N)N1` [Example 26A, (R)-8-chloro-4-(4,4-diethyl-2-imino-6-oxotetrahydropyrimidin-1(2H)-yl)-N-((S)-2,2-dimethylchroman-4-yl)chromane-6-carboxamide], 1.3 nM.
Same read-out and setting: the result for `CCC1(CC)CC(=O)N([C@@H]2CCOc3c(Cl)cc(C(=O)N[C@@H]4CC(C)(C)Oc5ccccc54)cc32)C(=N)N1` [Example 26B, (R)-8-chloro-4-(4,4-diethyl-2-imino-6-oxotetrahydropyrimidin-1(2H)-yl)-N-((R)-2,2-dimethylchroman-4-yl)chromane-6-carboxamide] reads 180 nM; that for `CCC1(CC)CC(=O)N([C@@H]2CCOc3c(C#N)cc(C(=O)N[C@H]4CC(C)(C)Oc5ccccc54)cc32)C(=N)N1` [Example 27A, (R)-8-cyano-4-(4,4-diethyl-2-imino-6-oxotetrahydropyrimidin-1yl)-N-((S)-2,2-dimethylchroman-4-yl)chromane-6-carboxamide], 1.3 nM.
Regarding `CCC1(CC)CC(=O)N([C@@H]2CCOc3c(C#N)cc(C(=O)N[C@@H]4c5ccccc5OC(C)(C)[C@H]4O)cc32)C(=N)N1` [Example 28A, (R)-8-cyano-4-(4,4-diethyl-2-imino-6-oxotetrahydropyrimidin-1(2H)-yl)-N-((3S,4R)-3-hydroxy-2,2-dimethylchroman-4-yl)chromane-6-carboxamide], the EC50 amounted to 1.8 nM.
On the same count and under the same terms, for `CCC1(CC)CC(=O)N([C@@H]2CCOc3c(Cl)cc(C(=O)N[C@@H]4c5ccccc5OC(C)(C)[C@H]4O)cc32)C(=N)N1` [Example 29A, (R)-8-chloro-4-(4,4-diethyl-2-imino-6-oxotetrahydropyrimidin-1(2H)-yl)-N-((3S,4R)-3-hydroxy-2,2-dimethylchroman-4-yl)chromane-6-carboxamide] the value was 1 nM; for `CCC1(CC)CC(=O)N([C@@H]2CCOc3c(Cl)cc(C(=O)N[C@H]4c5ccccc5OC(C)(C)[C@@H]4O)cc32)C(=N)N1` [Example 29B, (R)-8-chloro-4-(4,4-diethyl-2-imino-6-oxotetrahydropyrimidin-1(2H)-yl)-N-((3R,4S)-3-hydroxy-2,2-dimethylchroman-4-yl)chromane-6-carboxamide], 39.7 nM; for `CCC1(CC)CC(=O)N([C@@H]2CCOc3ccc(C(=O)N[C@@H]4c5ccccc5OC(C)(C)[C@H]4O)nc32)C(=N)N1` [Example 30A, (R)-4-(4,4-diethyl-2-imino-6-oxotetrahydropyrimidin-1(2H)-yl)-N-((3S,4R)-3-hydroxy-2,2-dimethylchroman-4-yl)-3,4-dihydro-2H-pyrano[3,2-b]pyridine-6-carboxamide], 0.8 nM.
The compound `CCC1(CC)CC(=O)N([C@@H]2CCOc3ccc(C(=O)N[C@@H]4CC(C)(C)Oc5ccccc54)nc32)C(=N)N1` [Example 31A, (R)-4-(4,4-diethyl-2-imino-6-oxotetrahydropyrimidin-1(2H)-yl)-N-((R)-2,2-dimethylchroman-4-yl)-3,4-dihydro-2H-pyrano[3,2-b]pyridine-6-carboxamide] came in with an EC50 of 22 nM.
Still for that read-out and setting: the result for `CCC1(CC)CC(=O)N([C@@H]2CCOc3ccc(C(=O)N[C@H]4CC(C)(C)Oc5ccccc54)nc32)C(=N)N1` [Example 31B, (R)-4-(4,4-diethyl-2-imino-6-oxotetrahydropyrimidin-1(2H)-yl)-N-((S)-2,2-dimethylchroman-4-yl)-3,4-dihydro-2H-pyrano[3,2-b]pyridine-6-carboxamide] reads 1 nM; that for `CCC1(CC)CC(=O)N([C@@H]2CC(C)(C)Oc3ccc(C(=O)N[C@H]4CCOc5ccccc54)cc32)C(=N)N1` [Example 33A, (R)-N-((S)-chroman-4-yl)-4-(4,4-diethyl-2-imino-6-oxotetrahydropyrimidin-1(2H)-yl)-2,2-dimethylchromane-6-carboxamide], 28.3 nM; that for `CCC1(CC)CC(=O)N([C@@H]2CC(C)(C)Oc3ccc(C(=O)N[C@@H]4c5ccccc5OC(C)(C)[C@H]4O)cc32)C(=N)N1` [Example 34A, (R)-4-(4,4-diethyl-2-imino-6-oxotetrahydropyrimidin-1(2H)-yl)-N-((3S,4R)-3-hydroxy-2,2-dimethylchroman-4-yl)-2,2-dimethylchromane-6-carboxamide], 1.2 nM.
